Test results: patent US20100143897A1, “Materials and Methods for Assaying for Glyoxylate” (University of South Florida, priority 2005, published 2010)

Tested on: peptidylglycine α-amidating monooxygenase (PAM)
Experiment: PAM treatment of hippurate: benzamide by HPLC, glyoxylate by malate synthase/malate dehydrogenase/MTS/PMS system
Assay type: biochemical
Conditions: PAM added to hippurate
Procedure: Spectrophotometric enzyme-linked assays for glyoxylate were initiated by the addition of malate synthase and malate dehydrogenase. […] The absorbance at 490 nm was measured after one hour incubation at 37° C. in the dark. The small amount of MTS reduced for the zero glyoxylate control was subtracted from that obtained in the presence of glyoxylate. Hippurate (N-benzoylglycine, C6H5—CO—NH—CH2—COO^−) is a PAM substrate that is oxidatively converted to benzamide and glyoxylate. […] At 10 min intervals over a period of 110 minutes, 45 μl aliquots were removed and added to 10 μl of 6% (v/v) trifluoroacetic acid to terminate the reaction. Percent conversion of hippurate to benzamide was determined at each time interval by reverse-phase HPLC. […] Following ascorbate removal the addition of 100 ul enzyme couple and PMS/MTS brought the assay to a final volume of 1 ml which contained 100 mM TEA-HCl pH 7.8, 10 mM MgCl2, 400 μM acetyl-CoA, 500 μM NAD^+, 6 U/ml malate synthase, 6 U/ml malate dehydrogenase, and 12 units ascorbate oxidase. […] A control for this experiment was performed at each time point, and contained no hippurate.

O=C(O)CNC(=O)c1ccccc1 [Hippurate, N-benzoylglycine]
Benzamide Produced (Time 40): 0.58 mM | Glyoxylate Produced (Time 40): 0.69 mM | Benzamide Produced (Time 50): 0.70 mM | Glyoxylate Produced (Time 50): 0.67 mM | Benzamide Produced (Time 60): 0.80 mM | Glyoxylate Produced (Time 60): 0.71 mM | Benzamide Produced (Time 70): 0.90 mM | Glyoxylate Produced (Time 70): 0.75 mM | Benzamide Produced (Time 80): 0.98 mM | Glyoxylate Produced (Time 80): 0.77 mM | Benzamide Produced (Time 90): 1.1 mM | Glyoxylate Produced (Time 90): 1.3 mM | Benzamide Produced (Time 100): 1.2 mM | Glyoxylate Produced (Time 100): 1.3 mM | Benzamide Produced (Time 110): 1.3 mM | Glyoxylate Produced (Time 110): 1.3 mM
